US12370149B1, “Transdermal cannabidiol delivery device” (ZHI Technologies, Inc., priority 2024, dated 2025)

Assay: Solubility of CBD in mineral oil
Assay type: physicochemical
From the text: Cannabidiol content. As discussed above, the matrices and TTDs of the present disclosure are advantageously formulated with a “saturated-plus-excess” concentration of CBD. The solubility of CBD in mineral oil (and by extension a PIB/mineral oil blend since PIB and mineral oil have the same solubility) is 4% (w/w). The amount of CBD in the matrix should be at least twofold, e.g., at least threefold, at least fourfold, or at least fivefold more CBD than the maximum concentration of CBD that dissolves in the plasticizer (e.g., mineral oil). The amount of CBD in the matrix can be any amount from about 10% (w/w) to about 30% (w/w) of the matrix, for example about 12.0% (w/w), about 12.5% (w/w), about 13.0% (w/w), about 13.5% (w/w), about 14.0% (w/w), about 14.5% (w/w), about 15.0% (w/w), about 15.5% (w/w), about 16.0% (w/w), about 16.5% (w/w), about 17.0% (w/w), about 17.5% (w/w), about 18.0% (w/w), about 18.5% (w/w), about 19.0% (w/w), about 19.5% (w/w), about 20.0% (w/w), or about 20.5% (w/w) of the matrix. The amount of cannabinoids other than CBD should be less than about 10% (w/w), for example less than about 1% (w/w).

C=C(C)[C@@H]1CCC(C)=C[C@H]1c1c(O)cc(CCCCC)cc1O [CBD, cannabidiol]
solubility of CBD in mineral oil (and by extension a PIB/mineral oil blend): 4 % (w/w)
